We go through six compounds from patent US9809623B2, “α4β7 peptide monomer and dimer antagonists” (Protagonist Therapeutics, Inc., priority 2014, dated 2017).

Numbered stars: 1 amine (or outer) side, 2 acyl side, 3 side chain; on linkers, the order of the positions; unused ones are H or OH. Bridge positions count the residues as written; N and C are the ends. Square brackets hold non-standard residues; d marks the D form. Peptide text beside a SMILES is read from it. I, II: the chains in the order shown. Phe(4-tBu) = CC(C)(C)c1ccc(C[C@H](N)C(=O)O)cc1; Diglycolyl = O=C(COCC(=O)[*:2])[*:1]; NMeR = CN[C@@H](CCCNC(=N)N)C(=O)O; β3hE = N[C@@H](CCC(=O)O)CC(=O)O; NMeK = CN[C@@H](CCCCN)C(=O)O; Pen = CC(C)(S)[C@H](N)C(=O)O; dNMeK = CN[C@H](CCCCN)C(=O)O Bounds are passed on as bounds.

One data set has as its target α4β7 (Homo sapiens, UniProt P13612+P26010). Put plainly: α4β7-MAdCAM Cell Adhesion Assay (RPMI 8866 human cells). Also noted: host or cells: RPMI 8866 human B lymphoblastoid cells. The class given is cell-based. The following applies: Table 4-B; read-out: Cell Adhesion α4β7 IC50. In outline: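 Adhesion read-out: MTT absorbance at 570 nm minus no-cell wells, after three washes. Plates coated with rh MAdCAM-1/Fc received peptide dilutions plus 200,000 RPMI 8866 cells in Mn2+ (1 mM)-supplemented DMEM, 0.1% BSA, HEPES pH 7, incubated 30-45 min, 37 °C.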

A further data set has as its target T1, α4β1 (Homo sapiens, UniProt P05556+P13612, DEL729-798).
T1 construct: purchased R&D Systems 5668-A4
The data set is described as follows: α4β1-VCAM Competition ELISA. The note with it: Table 4-B; read-out: ELISA_α4β1 IC50. The class given is binding. In outline: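 ELISA plates were coated with VCAM-1 Fc at 400 ng/well. Peptide dilutions (highest final 100 μM) and 60 nM α4β1 were incubated 2 h at 37 °C in pH 7.6 Tris buffer containing 1 mM Mn2+ or Mg2+. Integrin retained on the plate was detected by 9F10 antibody, then HRP secondary, with TMB absorbance at 450 nm.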
In general terms: An ELISA detects its analyte on a solid surface through an enzyme-linked reagent.

The nature of data set [1]: Simulated Intestinal Fluid (SIF) Stability Assay. The class given is in vitro ADME, porcine. The following applies: t1/2; for half-life at 22 μM: pig, simulated intestinal fluid (SIF) with 1% porcine pancreatin, pH 6.5, Table 4-C, > means assay stopped at that time, read-out: SIF (porcine) Min. In outline: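 Intestinal stability: percent peptide remaining over time, by LC-MS/MS peak-area ratio to internal standard, fitted to first-order decay for half-life. Conditions: 22 μM peptide, 1% pancreatin in pH 6.5 blank FASSIF, 37 °C.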

Sequence of α4β7 (P13612 34-1032): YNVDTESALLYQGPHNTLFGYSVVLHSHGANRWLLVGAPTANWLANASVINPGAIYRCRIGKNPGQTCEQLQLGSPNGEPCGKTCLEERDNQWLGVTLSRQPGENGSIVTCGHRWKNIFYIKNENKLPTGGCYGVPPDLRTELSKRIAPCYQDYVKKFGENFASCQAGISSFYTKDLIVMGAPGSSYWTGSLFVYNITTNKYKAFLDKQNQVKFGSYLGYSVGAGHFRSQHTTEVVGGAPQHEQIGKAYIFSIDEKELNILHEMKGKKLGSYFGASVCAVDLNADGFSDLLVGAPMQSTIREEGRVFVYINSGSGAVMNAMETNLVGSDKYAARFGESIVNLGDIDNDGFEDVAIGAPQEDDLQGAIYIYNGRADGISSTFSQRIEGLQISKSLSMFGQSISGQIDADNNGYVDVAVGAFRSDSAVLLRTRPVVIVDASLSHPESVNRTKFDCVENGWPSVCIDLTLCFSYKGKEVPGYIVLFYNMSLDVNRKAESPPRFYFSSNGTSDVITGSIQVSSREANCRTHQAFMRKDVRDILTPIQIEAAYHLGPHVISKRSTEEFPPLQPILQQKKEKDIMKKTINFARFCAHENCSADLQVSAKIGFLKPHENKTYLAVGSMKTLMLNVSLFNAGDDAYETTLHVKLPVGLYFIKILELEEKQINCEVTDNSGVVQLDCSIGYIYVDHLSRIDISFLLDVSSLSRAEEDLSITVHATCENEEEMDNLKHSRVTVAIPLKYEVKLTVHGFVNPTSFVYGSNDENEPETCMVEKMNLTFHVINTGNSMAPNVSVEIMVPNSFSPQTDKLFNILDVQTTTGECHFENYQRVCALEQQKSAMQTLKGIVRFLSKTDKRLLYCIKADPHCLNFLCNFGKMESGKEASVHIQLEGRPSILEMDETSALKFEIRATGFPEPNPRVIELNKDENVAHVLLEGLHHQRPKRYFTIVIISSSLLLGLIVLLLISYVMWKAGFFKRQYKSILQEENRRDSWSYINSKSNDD
Sequence of α4β7 (P26010 20-798): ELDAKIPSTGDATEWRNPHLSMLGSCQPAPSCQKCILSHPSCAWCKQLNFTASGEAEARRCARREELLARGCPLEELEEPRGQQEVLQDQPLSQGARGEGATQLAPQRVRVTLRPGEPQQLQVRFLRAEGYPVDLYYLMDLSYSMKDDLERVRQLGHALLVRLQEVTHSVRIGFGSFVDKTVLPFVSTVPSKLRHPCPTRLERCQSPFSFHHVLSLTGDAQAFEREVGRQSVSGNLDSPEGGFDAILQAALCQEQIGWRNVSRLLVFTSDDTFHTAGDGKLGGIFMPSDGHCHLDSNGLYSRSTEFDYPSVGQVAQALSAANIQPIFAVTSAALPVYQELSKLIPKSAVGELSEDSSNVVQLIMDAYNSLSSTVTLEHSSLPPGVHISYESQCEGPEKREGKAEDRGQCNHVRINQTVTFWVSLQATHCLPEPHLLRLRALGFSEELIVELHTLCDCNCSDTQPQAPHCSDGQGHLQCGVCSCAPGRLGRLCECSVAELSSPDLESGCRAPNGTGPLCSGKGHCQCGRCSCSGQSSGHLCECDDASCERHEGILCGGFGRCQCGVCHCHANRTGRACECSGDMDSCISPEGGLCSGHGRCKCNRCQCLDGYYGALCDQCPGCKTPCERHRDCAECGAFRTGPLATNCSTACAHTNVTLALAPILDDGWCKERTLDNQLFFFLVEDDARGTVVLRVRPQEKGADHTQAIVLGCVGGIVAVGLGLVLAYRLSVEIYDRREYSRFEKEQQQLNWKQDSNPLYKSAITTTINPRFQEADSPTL
T1 sequence (P13612 34-977 limits assumed, stated change not applied): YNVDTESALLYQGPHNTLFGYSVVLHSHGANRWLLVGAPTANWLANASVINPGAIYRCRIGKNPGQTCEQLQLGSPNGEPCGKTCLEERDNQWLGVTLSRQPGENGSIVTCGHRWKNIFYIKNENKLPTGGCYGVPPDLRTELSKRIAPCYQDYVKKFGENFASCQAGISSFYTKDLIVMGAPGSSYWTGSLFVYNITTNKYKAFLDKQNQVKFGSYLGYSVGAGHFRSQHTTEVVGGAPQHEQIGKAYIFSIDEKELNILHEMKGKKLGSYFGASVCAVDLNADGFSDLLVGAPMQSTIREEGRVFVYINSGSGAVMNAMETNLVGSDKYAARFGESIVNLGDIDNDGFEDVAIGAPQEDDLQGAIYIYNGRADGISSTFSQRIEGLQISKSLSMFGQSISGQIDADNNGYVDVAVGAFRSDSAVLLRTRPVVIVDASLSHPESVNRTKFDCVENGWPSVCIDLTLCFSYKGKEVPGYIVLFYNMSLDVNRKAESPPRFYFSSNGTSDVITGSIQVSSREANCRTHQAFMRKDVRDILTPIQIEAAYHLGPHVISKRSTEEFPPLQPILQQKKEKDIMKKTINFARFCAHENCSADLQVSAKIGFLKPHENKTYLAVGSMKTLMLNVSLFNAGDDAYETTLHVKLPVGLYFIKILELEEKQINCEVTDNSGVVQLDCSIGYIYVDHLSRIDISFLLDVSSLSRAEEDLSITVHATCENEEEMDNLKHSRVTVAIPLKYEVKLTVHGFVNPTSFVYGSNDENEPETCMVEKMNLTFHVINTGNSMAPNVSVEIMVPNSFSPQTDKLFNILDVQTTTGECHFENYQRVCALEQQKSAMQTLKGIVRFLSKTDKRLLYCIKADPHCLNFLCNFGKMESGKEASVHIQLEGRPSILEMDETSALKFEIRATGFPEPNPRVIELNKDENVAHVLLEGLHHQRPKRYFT
T1 sequence (P05556 21-728 limits assumed, stated change not applied): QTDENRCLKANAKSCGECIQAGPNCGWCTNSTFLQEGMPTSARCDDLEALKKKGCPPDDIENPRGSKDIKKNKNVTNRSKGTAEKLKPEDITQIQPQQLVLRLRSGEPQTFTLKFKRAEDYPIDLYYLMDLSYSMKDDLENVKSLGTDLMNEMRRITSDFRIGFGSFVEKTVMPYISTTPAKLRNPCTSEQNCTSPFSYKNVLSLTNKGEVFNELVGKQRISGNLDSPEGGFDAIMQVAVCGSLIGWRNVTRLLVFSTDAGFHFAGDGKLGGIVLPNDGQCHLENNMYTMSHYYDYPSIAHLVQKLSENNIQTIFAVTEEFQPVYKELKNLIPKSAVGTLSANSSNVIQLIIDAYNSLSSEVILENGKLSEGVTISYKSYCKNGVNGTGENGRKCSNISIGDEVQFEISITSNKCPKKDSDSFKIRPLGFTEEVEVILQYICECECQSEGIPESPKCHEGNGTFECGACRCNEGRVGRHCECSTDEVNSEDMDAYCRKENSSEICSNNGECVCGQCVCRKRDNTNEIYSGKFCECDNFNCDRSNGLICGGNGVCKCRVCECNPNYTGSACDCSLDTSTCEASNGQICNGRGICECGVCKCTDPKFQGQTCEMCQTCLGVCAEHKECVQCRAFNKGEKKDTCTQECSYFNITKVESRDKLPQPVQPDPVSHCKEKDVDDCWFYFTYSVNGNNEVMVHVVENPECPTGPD

In general, IC50 refers to the concentration at which inhibition is half-maximal. In the case of `CC(=O)N[C@@H]1C(=O)N(C)[C@@H](CCCNC(=N)N)C(=O)N[C@@H](CO)C(=O)N[C@@H](CC(=O)O)C(=O)N[C@@H]([C@@H](C)O)C(=O)N[C@@H](CC(C)C)C(=O)N[C@H](C(=O)N[C@@H](Cc2c[nH]c3ccccc23)C(=O)N[C@@H](CCC(=O)O)CC(=O)N[C@H](CCCCNC(=O)COCC(=O)NCCCC[C@@H](NC(=O)C[C@H](CCC(=O)O)NC(=O)[C@H](Cc2c[nH]c3ccccc23)NC(=O)[C@H]2NC(=O)[C@H](CC(C)C)NC(=O)[C@H]([C@@H](C)O)NC(=O)[C@H](CC(=O)O)NC(=O)[C@H](CO)NC(=O)[C@H](CCCNC(=N)N)N(C)C(=O)[C@@H](NC(C)=O)C(C)(C)SSC2(C)C)C(N)=O)C(N)=O)C(C)(C)SSC1(C)C` [compound 213, [Ac-Pen-(N-Me-Arg)-Ser-Asp-Thr-Leu-Pen-Trp-(β-homoGlu)-(D-Lys)-NH2]2-DIG] (I: Ac-[Pen][NMeR]SDTL[Pen]W[β3hE][dK]-NH2 / II: Ac-[Pen][NMeR]SDTL[Pen]W[β3hE][dK]-NH2; disulfide I:1-I:7, II:1-II:7; linker I:10-II:10 via Diglycolyl), the IC50 worked out at 12 nM at α4β7 and 539 nM on α4β1. Further, the half-life at 22 μM in data set [1] is more than 3 h.
The like results for `CC(=O)N[C@@H]1C(=O)N(C)[C@@H](CCCNC(=N)N)C(=O)N[C@@H](CO)C(=O)N[C@@H](CC(=O)O)C(=O)N[C@@H]([C@@H](C)O)C(=O)N[C@@H](CC(C)C)C(=O)N[C@H](C(=O)N[C@@H](Cc2c[nH]c3ccccc23)C(=O)N[C@@H](CCC(=O)O)C(=O)N(C)[C@H](CCCCNC(=O)COCC(=O)NCCCC[C@H](C(N)=O)N(C)C(=O)[C@H](CCC(=O)O)NC(=O)[C@H](Cc2c[nH]c3ccccc23)NC(=O)[C@H]2NC(=O)[C@H](CC(C)C)NC(=O)[C@H]([C@@H](C)O)NC(=O)[C@H](CC(=O)O)NC(=O)[C@H](CO)NC(=O)[C@H](CCCNC(=N)N)N(C)C(=O)[C@@H](NC(C)=O)C(C)(C)SSC2(C)C)C(N)=O)C(C)(C)SSC1(C)C` [compound 214, [Ac-Pen-(N-Me-Arg)-Ser-Asp-Thr-Leu-Pen-Trp-Glu-(N-Me-D-Lys)-NH2]2-DIG] (I: Ac-[Pen][NMeR]SDTL[Pen]WE[dNMeK]-NH2 / II: Ac-[Pen][NMeR]SDTL[Pen]WE[dNMeK]-NH2; disulfide I:1-I:7, II:1-II:7 (inferred); linker I:10-II:10 via Diglycolyl (inferred)) were, in that order, 2.5 nM, 436 nM and more than 13.5 h.
`CC(=O)N[C@@H]1C(=O)N(C)[C@@H](CCCNC(=N)N)C(=O)N[C@@H](CO)C(=O)N[C@@H](CC(=O)O)C(=O)N[C@@H]([C@@H](C)O)C(=O)N[C@@H](CC(C)C)C(=O)N[C@H](C(=O)N[C@@H](Cc2c[nH]c3ccccc23)C(=O)N[C@@H](CCC(=O)O)C(=O)N(C)[C@@H](CCCCNC(=O)COCC(=O)NCCCC[C@@H](C(N)=O)N(C)C(=O)[C@H](CCC(=O)O)NC(=O)[C@H](Cc2c[nH]c3ccccc23)NC(=O)[C@H]2NC(=O)[C@H](CC(C)C)NC(=O)[C@H]([C@@H](C)O)NC(=O)[C@H](CC(=O)O)NC(=O)[C@H](CO)NC(=O)[C@H](CCCNC(=N)N)N(C)C(=O)[C@@H](NC(C)=O)C(C)(C)SSC2(C)C)C(N)=O)C(C)(C)SSC1(C)C` [compound 215, [Ac-Pen-(N-Me-Arg)-Ser-Asp-Thr-Leu-Pen-Trp-Glu-(N-Me-Lys)-NH2]2-DIG] (I: Ac-[Pen][NMeR]SDTL[Pen]WE[NMeK]-NH2 / II: Ac-[Pen][NMeR]SDTL[Pen]WE[NMeK]-NH2; disulfide I:1-I:7, II:1-II:7 (inferred); linker I:10-II:10 via Diglycolyl (inferred)): the results for the IC50 on α4β7 and on α4β1 were 3 nM and 270 nM, respectively. In addition, in data set [1], the half-life at 22 μM is more than 6 h.
The like results for `CC(=O)N[C@@H]1C(=O)N(C)[C@@H](CCCNC(=N)N)C(=O)N[C@@H](CO)C(=O)N[C@@H](CC(=O)O)C(=O)N[C@@H]([C@@H](C)O)C(=O)N[C@@H](CC(C)C)C(=O)N[C@H](C(=O)N[C@@H](Cc2c[nH]c3ccccc23)C(=O)N[C@H](CCC(=O)O)C(=O)N[C@H](CCCCNC(=O)COCC(=O)NCCCC[C@@H](NC(=O)[C@@H](CCC(=O)O)NC(=O)[C@H](Cc2c[nH]c3ccccc23)NC(=O)[C@H]2NC(=O)[C@H](CC(C)C)NC(=O)[C@H]([C@@H](C)O)NC(=O)[C@H](CC(=O)O)NC(=O)[C@H](CO)NC(=O)[C@H](CCCNC(=N)N)N(C)C(=O)[C@@H](NC(C)=O)C(C)(C)SSC2(C)C)C(=O)O)C(=O)O)C(C)(C)SSC1(C)C` [compound 216, (Ac-Pen-N-Me-R-S-D-T-L-Pen-W-e-k-OH)2-DIG] (I: Ac-[Pen][NMeR]SDTL[Pen]W[dE][dK]-OH / II: Ac-[Pen][NMeR]SDTL[Pen]W[dE][dK]-OH; disulfide I:1-I:7, II:1-II:7 (inferred); linker I:10-II:10 via Diglycolyl (inferred)) were, in that order, 4.2 nM, 247 nM and more than 3 h.
For `CC(=O)N[C@@H]1C(=O)N(C)[C@@H](CCCNC(=N)N)C(=O)N[C@@H](CO)C(=O)N[C@@H](CC(=O)O)C(=O)N[C@@H]([C@@H](C)O)C(=O)N[C@@H](CC(C)C)C(=O)N[C@H](C(=O)N[C@@H](Cc2c[nH]c3ccccc23)C(=O)N[C@@H](CCC(=O)O)C(=O)N[C@H](CCCCNC(=O)COCC(=O)NCCCC[C@@H](NC(=O)[C@H](CCC(=O)O)NC(=O)[C@H](Cc2c[nH]c3ccccc23)NC(=O)[C@H]2NC(=O)[C@H](CC(C)C)NC(=O)[C@H]([C@@H](C)O)NC(=O)[C@H](CC(=O)O)NC(=O)[C@H](CO)NC(=O)[C@H](CCCNC(=N)N)N(C)C(=O)[C@@H](NC(C)=O)C(C)(C)SSC2(C)C)C(N)=O)C(N)=O)C(C)(C)SSC1(C)C` [compound 217, (Ac-Pen-N-Me-R-S-D-T-L-Pen-W-E-k-NH2)2-DIG] (I: Ac-[Pen][NMeR]SDTL[Pen]WE[dK]-NH2 / II: Ac-[Pen][NMeR]SDTL[Pen]WE[dK]-NH2; disulfide I:1-I:7, II:1-II:7 (inferred); linker I:10-II:10 via Diglycolyl (inferred)) the same measures were 3.2 nM, 315 nM and 2.02 h.
Consider `CC(=O)N[C@@H]1C(=O)N(C)[C@@H](CCCNC(=N)N)C(=O)N[C@@H](CO)C(=O)N[C@@H](CC(=O)O)C(=O)N[C@@H]([C@@H](C)O)C(=O)N[C@@H](CC(C)C)C(=O)N[C@H](C(=O)N[C@@H](Cc2ccc(C(C)(C)C)cc2)C(=O)N[C@@H](CCC(=O)O)CC(=O)N[C@H](CCCCNC(=O)COCC(=O)NCCCC[C@@H](NC(=O)C[C@H](CCC(=O)O)NC(=O)[C@H](Cc2ccc(C(C)(C)C)cc2)NC(=O)[C@H]2NC(=O)[C@H](CC(C)C)NC(=O)[C@H]([C@@H](C)O)NC(=O)[C@H](CC(=O)O)NC(=O)[C@H](CO)NC(=O)[C@H](CCCNC(=N)N)N(C)C(=O)[C@@H](NC(C)=O)C(C)(C)SSC2(C)C)C(N)=O)C(N)=O)C(C)(C)SSC1(C)C` [compound 218, [Ac-Pen-(N-Me-Arg)-Ser-Asp-Thr-Leu-Pen-Phe(4-tBu)-(β-homoGlu)-(D-Lys)-NH2]2-DIG] (I: Ac-[Pen][NMeR]SDTL[Pen][Phe(4-tBu)][β3hE][dK]-NH2 / II: Ac-[Pen][NMeR]SDTL[Pen][Phe(4-tBu)][β3hE][dK]-NH2; disulfide I:1-I:7, II:1-II:7; linker I:10-II:10 via Diglycolyl), for which the IC50 stood at 0.78 nM at α4β7 and 490 nM on α4β1. Besides, the “SIF (porcine), printed in hr in the cell” value in data set [1] (Table 4-C) was 11 h.
